Structures are written as SMILES.

T1 sequence (Q92847 whole entry): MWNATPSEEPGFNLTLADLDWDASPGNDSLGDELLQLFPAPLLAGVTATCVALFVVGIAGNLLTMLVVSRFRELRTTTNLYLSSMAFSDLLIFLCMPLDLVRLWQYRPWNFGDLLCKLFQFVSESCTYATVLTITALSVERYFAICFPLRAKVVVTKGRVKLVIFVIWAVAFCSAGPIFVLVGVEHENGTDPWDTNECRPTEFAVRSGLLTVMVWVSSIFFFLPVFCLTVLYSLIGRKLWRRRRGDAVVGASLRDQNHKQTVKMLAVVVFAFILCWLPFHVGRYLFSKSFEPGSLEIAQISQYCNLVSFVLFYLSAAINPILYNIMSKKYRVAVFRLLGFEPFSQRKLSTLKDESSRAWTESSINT

This test concerns the target T1, human GHS-R 1a (Homo sapiens, UniProt Q92847).
T1 construct: expressed in transfected cells; host or cells: LLC PK-1 porcine renal epithelial cells (ECACC No. 86121112), isolated plasma membranes
The test can be described thus: GHS-R 1a receptor-ligand binding assay (membrane preparations from transfected LLC PK-1 cells). The conditions noted are these: displacement of 125I-His9-ghrelin (60 pM); membranes of LLC PK-1 cells transfected with human GHS-R 1a; mean of at least two independent experiments in triplicates. The procedure:
(J. Med. […] Med. Chem. 2003, 46: 1191-1203), were incubated in homogenization buffer HB [50 mM Tris (pH 7.3), 5 mM MgCl2, 2.5 mM EDTA, and 30 μg/mL bacitracin (Sigma)] for 60 min at 25° C. (steady-state conditions) with 60 pM ^125I-[…]-ghrelin (Amersham) in the presence or absence of competing compounds (compounds of the invention). […] Nonspecific binding was defined using an excess (10^-6 M) of ghrelin. The binding reaction was stopped by addition of 4 mL of ice-cold HB followed by rapid filtration over Whatman GP/C filters presoaked with 0.5% polyethyleneimine to prevent excessive binding of radioligand to the filters. […] IC50 values given are the mean of at least two independent experiments performed in triplicates.
(In general: Displacement assays read how much labelled ligand stays bound in the presence of the test substance.)
As for `COc1ccc(Cn2c(CCc3c[nH]c4ccccc34)nnc2[C@@H](Cc2c[nH]c3ccccc23)NC(=O)Cc2ccncc2)cc1` [compound 136, N—((R)-1-(5-(2-(1H-indol-3-yl)ethyl)-4-(4-methoxybenzyl)-4H-1,2,4-triazol-3-yl)-2-(1H-indol-3-yl)ethyl)-2-(pyridin-4-yl)acetamide], the half-maximal inhibitory concentration (IC50) (in general, the midpoint of a concentration-inhibition curve) stood at 106 nM.

In the case of `COc1ccc(Cn2c(CCc3c[nH]c4ccccc34)nnc2[C@@H](Cc2c[nH]c3ccccc23)NC(=O)[C@H]2CCCCN2)cc1` [compound 88, (R)—N—((R)-1-(5-(2-(1H-indol-3-yl)ethyl)-4-(4-methoxybenzyl)-4H-1,2,4-triazol-3-yl)-2-(1H-indol-3-yl)ethyl)piperidine-2-carboxamide], the IC50 amounted to 29 nM.

Compound `COc1ccc(Cn2c(CCc3ccccc3)nnc2[C@@H](Cc2c[nH]c3ccccc23)NC(=O)c2cnccn2)c(OC)c1` [compound 66, (R)—N-(1-(4-(2,4-dimethoxybenzyl)-5-phenethyl-4H-1,2,4-triazol-3-yl)-2-(1H-indol-3-yl)ethyl)pyrazine-2-carboxamide] returned an IC50 of 8 nM.

As for `COc1ccc(Cn2c(CCc3ccccc3)nnc2[C@@H](Cc2c[nH]c3ccccc23)NC(=O)C2CNCCN2)c(OC)c1` (stereo partly drawn) [compound 67], the IC50 came to 35 nM.

`CC(C)(N)C(=O)N[C@H](Cc1c[nH]c2ccccc12)c1nnc(CCc2ccccc2)n1Cc1cccc2ccccc12` [compound 27, (R)—N-(2-(1H-indol-3-yl)-1-(4-(naphthalen-1-ylmethyl)-5-phenethyl-4H-1,2,4-triazol-3-yl)ethyl)-2-amino-2-methylpropanamide] gave an IC50 of 126 nM.

As for `COc1ccccc1Cn1c(CCc2ccccc2)nnc1[C@@H](Cc1c[nH]c2ccccc12)NC(=O)C(C)(C)N` [compound 26, (R)—N-(1-(4-(2-methoxybenzyl)-5-phenethyl-4H-1,2,4-triazol-3-yl)-2-(1H-indol-3-yl)ethyl)-2-amino-2-methylpropanamide], the IC50 came out at 56 nM.

The compound `CC(C)(N)C(=O)N[C@H](Cc1c[nH]c2ccccc12)c1nnc(CCCc2c[nH]c3ccccc23)n1CCc1ccccc1` [compound 3, (R)—N-(1-(5-(3-(1H-indol-3-yl)propyl)-4-phenethyl-4H-1,2,4-triazol-3-yl)-2-(1H-indol-3-yl)ethyl)-2-amino-2-methylpropanamide] showed an IC50 of 14 nM.

Consider `O=C(N[C@H](Cc1c[nH]c2ccccc12)c1nnc(CCc2ccccc2)n1Cc1ccco1)c1ccccn1` [compound 182, N—((R)-1-(4-((furan-2-yl)methyl)-5-phenethyl-4H-1,2,4-triazol-3-yl)-2-(1H-indol-3-yl)ethyl)picolinamide], for which the IC50 is 81 nM.

Consider `CCc1ccc(Cn2c(CCc3ccccc3)nnc2[C@@H](Cc2c[nH]c3ccccc23)NC(=O)[C@H]2CCCNC2)cc1` [compound 155, (3S)—N—((R)-1-(4-(4-ethylbenzyl)-5-phenethyl-4H-1,2,4-triazol-3-yl)-2-(1H-indol-3-yl)ethyl)piperidine-3-carboxamide], for which the IC50 amounted to 188 nM.

Regarding `COc1ccc(-n2c(CCc3ccccc3)nnc2[C@@H](Cc2c[nH]c3ccccc23)NC(=O)C2CCNCC2)c(OC)c1` [compound 163, N—((R)-2-(1H-indol-3-yl)-1-(4-(2,4-dimethoxyphenyl)-5-phenethyl-4H-1,2,4-triazol-3-yl)ethyl)piperidine-4-carboxamide], the IC50 amounted to 63 nM.

Consider `O=C(N[C@H](Cc1c[nH]c2ccccc12)c1nnc(CCc2c[nH]c3ccccc23)n1Cc1ccccc1)C1CCCNC1` (mixture of isomers) [compound 55, (R)—N-(1-(5-(2-(1H-indol-3-yl)ethyl)-4-benzyl-4H-1,2,4-triazol-3-yl)-2-(1H-indol-3-yl)ethyl)piperidine-3-carboxamide], for which the IC50 is 11 nM.

`O=C(N[C@H](Cc1c[nH]c2ccccc12)c1nnc(CCc2c[nH]c3ccccc23)n1Cc1ccccc1)C1CCNCC1` [compound 54, (R)—N-(1-(5-(2-(1H-indol-3-yl)ethyl)-4-benzyl-4H-1,2,4-triazol-3-yl)-2-(1H-indol-3-yl)ethyl)piperidine-4-carboxamide] gave an IC50 of 35 nM. Compared with the last compound, the IC50 is about 3.2-fold higher.

With `COc1ccc(Cn2c(CCc3ccccc3)nnc2[C@@H](Cc2c[nH]c3ccccc23)NC(=O)C2CCCCC2)cc1` [compound 53, (R)—N-(1-(4-(4-methoxybenzyl)-5-phenethyl-4H-1,2,4-triazol-3-yl)-2-(1H-indol-3-yl)ethyl)cyclohexanecarboxamide], the IC50 amounted to 18 nM. This IC50 lies about 1.9-fold lower than the previous one.

`O=C(N[C@H](Cc1c[nH]c2ccccc12)c1nnc(CCc2ccccc2)n1-c1ccccc1)c1ccccn1` [compound 146, N—((R)-2-(1H-indol-3-yl)-1-(5-phenethyl-4-phenyl-4H-1,2,4-triazol-3-yl)ethyl)picolinamide]: the IC50 is 105 nM.

The compound `COc1ccc(Cn2c(CCc3c[nH]c4ccccc34)nnc2[C@@H](Cc2c[nH]c3ccccc23)NC(=O)c2ccccn2)c(OC)c1` [compound 73, (R)—N-(1-(5-(2-(1H-indol-3-yl)ethyl)-4-(2,4-dimethoxybenzyl)-4H-1,2,4-triazol-3-yl)-2-(1H-indol-3-yl)ethyl)picolinamide] returned an IC50 of 1.8 nM.

With `COc1ccc(Cn2c(CCc3c[nH]c4ccccc34)nnc2[C@@H](Cc2c[nH]c3ccccc23)NC(=O)CN)c(OC)c1` [compound 69, (R)—N-(1-(5-(2-(1H-indol-3-yl)ethyl)-4-(2,4-dimethoxybenzyl)-4H-1,2,4-triazol-3-yl)-2-(1H-indol-3-yl)ethyl)-2-aminoacetamide], the IC50 is 38 nM.

Regarding `COc1ccc(Cn2c(CCc3c[nH]c4ccccc34)nnc2[C@@H](Cc2c[nH]c3ccccc23)NC(=O)Cc2ccccn2)c(OC)c1` [compound 61, (R)—N-(1-(5-(2-(1H-indol-3-yl)ethyl)-4-(2,4-dimethoxybenzyl)-4H-1,2,4-triazol-3-yl)-2-(1H-indol-3-yl)ethyl)-2-(pyridin-2-yl)acetamide], the IC50 was 34 nM.

As for `COc1cccc(Cn2c(Cc3ccccc3)nnc2[C@@H](Cc2c[nH]c3ccccc23)NC(=O)C(C)(C)N)c1` [compound 7, (R)—N-(1-(4-(3-methoxybenzyl)-5-benzyl-4H-1,2,4-triazol-3-yl)-2-(1H-indol-3-yl)ethyl)-2-amino-2-methylpropanamide], the IC50 was 120 nM.

Turning to `COC(=O)CCn1nnnc1[C@@H](Cc1c[nH]c2ccccc12)NC(=O)C(C)(C)N` [Example 3 from WO 00/54729 A2, (R)—N-(1-(1-methylpropanoate-tetrazol-5-yl)-2-(1H-indol-3-yl)ethyl)-2-amino-2-methylpropanamide, reference compound], the IC50 is around 3000 nM.

In turn, `COc1ccc(Cn2c(CCc3ccccc3)nnc2[C@@H](Cc2c[nH]c3ccccc23)NC(=O)[C@H]2CCCNC2)cc1` [compound 41, (S)—N—((R)-1-(4-(4-methoxybenzyl)-5-phenethyl-4H-1,2,4-triazol-3-yl)-2-(1H-indol-3-yl)ethyl)piperidine-3-carboxamide] gave an IC50 of 16 nM.

Compound `COc1ccc(Cn2c(CCc3ccccc3)nnc2[C@@H](Cc2c[nH]c3ccccc23)NC(=O)C(C)(C)N)c(OC)c1` [compound 179, N—((R)-1-(4-(2,4-dimethoxybenzyl)-5-phenethyl-4H-1,2,4-triazol-3-yl)-2-(1H-indol-3-yl)ethyl)-2-amino-2-methylpropanamide] registered an IC50 of 62 nM.

(Values after patent publication US8710089B2, “Triazole derivatives as ghrelin analogue ligands of growth hormone secretagogue receptors” (Zentaris GmbH, priority 2005, dated 2014).)
